{"source": "patent US8383128B2", "about": "“Method of protecting plant(s) and a process thereof” (priority 2008, dated 2013)", "test_system": "Helicoverpa armigera larvae (third instar)", "assay": "Bioassay of meroterpenoid using H. armigera larvae (cotton leaf dip feeding)", "assay_type": "in vivo", "conditions": "for Mortality (%) / Survival (%): treated cotton leaves, recorded up to 6 days", "text": "The cotton Bollworm, Helicoverpa armigera is considered as one of the major threats to present day intensive agriculture. […] Cotton leaves were surface sterilized with 0.5% sodium hypochlorite, rinsed in sterile water and shade dried. The leaves were dipped in respective concentration of the insecticide for 30 seconds and then they were drained and dried at room temperature. The turgidity was maintained by surrounding the petiole with cotton wool saturated with water. The petioles of the leaves with cotton swab were kept immersed in water and were used control. The entire setup was kept enclosed in mylar film cage and Helicoverpa armigera larvae (third instar) of 30-40 milligrams weight were allowed to feed. Mortality rate was recorded at 24 hours intervals up to 6 days.", "data": [{"compound": "COc1ccc(-c2cc3c(c(=O)o2)C[C@@]2(O)[C@@]4(C)C(=O)[C@@]5(OC)C(=O)O[C@]4(CC[C@@]2(C)O3)C5(C)C)cc1", "note": "[Terreulactone A, terreulactone A]", "values": [{"measurement": "Mortality (%)", "setting": "2.5 μg terreulactone A", "value": 52.5, "unit": "%"}, {"measurement": "Survival (%)", "setting": "2.5 μg terreulactone A", "value": 47.5, "unit": "%"}, {"measurement": "Mortality (%)", "setting": "5.0 μg terreulactone A", "value": 62.5, "unit": "%"}, {"measurement": "Survival (%)", "setting": "5.0 μg terreulactone A", "value": 37.5, "unit": "%"}, {"measurement": "Mortality (%)", "setting": "10 μg terreulactone A", "value": 82.5, "unit": "%"}, {"measurement": "Survival (%)", "setting": "10 μg terreulactone A", "value": 17.5, "unit": "%"}, {"measurement": "mortality rate of the larval pests (in words)", "setting": "larval pests fed on treated plant or plant parts", "value": "increased the mortality rate"}]}]}
